From patent US5965701A, “Kappa receptor opioid peptides” (priority 1997, dated 1999)
Values joined by “and” are separate entries in the source; they are usually repeats but may differ in a detail not shown here. Equal values may be shown once. Where a SMILES comes first, the peptide text is derived from it. [ ]: non-standard residue; d: D form. The star is where a group is joined. dPhe(3,4-Cl2) = N[C@H](Cc1ccc(Cl)c(Cl)c1)C(=O)O; d2Nal = N[C@H](Cc1ccc2ccccc2c1)C(=O)O; d2Thi = N[C@H](Cc1cccs1)C(=O)O; NH(4-picolyl) = c1cc(CN*)ccn1; N(CH2CH2)2NH = C1CN(*)CCN1; dNle = CCCC[C@@H](N)C(=O)O; Morpholide = C1CN(*)CCO1; NEt2 = CCN(CC)*; NHcPr = C1CC1N*; NHPr = CCCN*

Key:
[1] = target: T1, cloned human kappa (hKOR) receptor (Homo sapiens, UniProt P41145); test: biochemical; format: binding; conditions: for μ/κ Ratio (binding affinity for KOR versus MOR): Ki MOR / Ki KOR; for Ki: read-out: Ki KOR
T1 construct: expressed in transfected cells; host or cells: HN9.10 (mouse hippocampal neuroblastoma), stably transfected

[2] = target: T2, cloned human mu opioid (hMOR) receptor (Homo sapiens, UniProt P35372); test: Competition binding at cloned hMOR, displacement of 3H-DAMGO; conditions: hMOR stably expressed in HN.9.10 cells, read-out: Ki MOR
T2 construct: expressed in transfected cells; host or cells: HN9.10 (mouse hippocampal neuroblastoma), stably transfected

conscious male ICR mice = test: Mouse acetic acid writhing test (WT); format: in vivo; conditions: for WT-ED50: i.v., 5 minutes before acetic acid i.p., writhes over 15 minutes; for % Antinociception 1 hr / % Antinociception 2 hr / % Antinociception 3 hr: submaximal effective dose i.v., percentage of the activity found at -5 min; for % Antinociception 1 hr: 60 min pretreatment; for % Antinociception 2 hr: 120 min pretreatment; for % Antinociception 3 hr: 180 min pretreatment
Description: Selected peptides that are identified in Tables A-G have been further specifically subjected to in vivo testing for determination of duration of action of their opioid properties, and the results are reported in Table H hereinafter. The peptide numbers correspond to those in the earlier tables and the figures with regard to μ/K ratio are simply carried over for reference purposes. The in vivo testing is carried out using a mouse writhing test (WT) that is well-suited for determining the length of duration of antinociceptive biological activity. This test is described in detail in an article by G. A. Bentley et al., Br. J. Phamac., 73:325-332, 1981, and it employs conscious male ICR mice which are purchased from Harlan and which weigh between 20 and 30 grams. The mice are fasted for 12 to 16 hours prior to beginning the test. The nociceptive behavior, i.e. writhing, to be monitored is induced by the intraperitoneal (i.p.) administration of dilute acetic acid. 10 milliliters of 0.6% aqueous acetic acid is used per kg of body weight. Writhing is scored during the 15 minutes following acetic acid administration. In a first step, compounds are tested at 3 to 4 increasing doses, given by intravenous route, and at one unique pretreatment time (-5 minutes before acetic acid injection). […] In a second step, this submaximal effective dose for each specific peptide is administered at various pretreatment times (i.e. -5 minutes, -60 minutes, -120 minutes and -180 minutes) prior to the administration of the acetic acid in order to determine the duration of action. Throughout the test, a control group of mice are used which are administered only the vehicle without the candidate peptide. The number of writhes are counted over a 15-minute period, starting from the time of acetic acid injection, and bioactivity, i.e. antinociception, is expressed as a percentage, and is calculated as follows:
100×(writhes in control group-writhes in treated group)/writhes in
Values higher than 100% indicate greater antinociception than at the beginning of the experiment. It is felt that the opioid peptide should be effective to reduce writhing by at least about 25% at a time of 1 hour to be considered to have long duration of in vivo action.
In addition to using this test to determine duration of antinociceptive activity, it is also used to measure the in vivo biopotency (short term) of the peptide. This value is given in the table under the heading WT-ED50 in milligrams per kg of body weight. The value is a measure of the dosage necessary to reduce the number of writhes in the mouse being tested by 50% (as compared to a control mouse) over a period of 15 minutes.

mouse = conditions: for TF-ED50: i.v., 52° C. water, central effects; for BPI (Brain Penetration Index): mouse, in vivo, iv

T2 sequence (P35372 whole entry): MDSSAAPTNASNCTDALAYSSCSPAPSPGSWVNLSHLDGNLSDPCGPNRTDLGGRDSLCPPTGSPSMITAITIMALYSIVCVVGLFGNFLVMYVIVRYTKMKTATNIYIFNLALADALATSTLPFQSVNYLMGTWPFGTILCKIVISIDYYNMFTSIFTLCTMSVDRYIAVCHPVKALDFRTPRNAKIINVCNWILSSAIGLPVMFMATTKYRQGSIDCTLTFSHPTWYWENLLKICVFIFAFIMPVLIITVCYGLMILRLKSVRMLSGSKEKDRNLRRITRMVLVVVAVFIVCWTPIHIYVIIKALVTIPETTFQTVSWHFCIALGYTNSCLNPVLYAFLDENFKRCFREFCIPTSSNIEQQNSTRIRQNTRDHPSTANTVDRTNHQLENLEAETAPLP
T1 sequence (P41145 whole entry): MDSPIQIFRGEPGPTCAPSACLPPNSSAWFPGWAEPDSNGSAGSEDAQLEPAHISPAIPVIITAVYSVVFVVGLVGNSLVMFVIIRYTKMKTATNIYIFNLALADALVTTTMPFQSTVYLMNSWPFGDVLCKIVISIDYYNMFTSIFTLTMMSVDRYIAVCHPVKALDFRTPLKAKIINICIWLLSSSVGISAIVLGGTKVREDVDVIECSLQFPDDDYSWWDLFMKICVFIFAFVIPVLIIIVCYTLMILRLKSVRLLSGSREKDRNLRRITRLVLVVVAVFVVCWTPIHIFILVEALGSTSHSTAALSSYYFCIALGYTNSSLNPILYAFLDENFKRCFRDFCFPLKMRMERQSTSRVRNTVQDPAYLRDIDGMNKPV

## CCCC[C@@H](NC(=O)[C@@H](Cc1ccccc1)NC(=O)[C@H](N)Cc1ccccc1)C(=O)N[C@H](CCCNC(=N)N)C(=O)NCC [Peptide 1, H-D-Phe-D-Phe-D-Nle-D-Arg-NHEt] (H-[dF][dF][dNle][dR]-NHEt)
[1]
  μ/κ Ratio (binding affinity for KOR versus MOR): 38,000
  Ki: ~0.05 nM
[1]; listed as Peptide No. 1
  μ/κ Ratio (binding affinity for KOR versus MOR): about 38,000
[2]
  Ki: 1890 ± 990 nM
Conscious male ICR mice
  WT-ED50: 0.09 mg/kg
  % Antinociception 1 hr: 83.9%
  % Antinociception 2 hr: 75.5%
  % Antinociception 3 hr: 61.3%
Conscious male ICR mice; listed as Peptide No. 1
  WT-ED50: about 0.09 mg/kg
Conscious male ICR mice; mouse acetic acid writhing assay, Example 1
  antinociception after 3 hours: over 50%
Conscious male ICR mice; result in words
  duration of antinociceptive bioactivity (duration of action): very long duration of action
mouse
  TF-ED50: 9.7 mg/kg
  BPI (Brain Penetration Index): 108

## CCCC[C@@H](NC(=O)[C@@H](Cc1ccccc1)NC(=O)[C@H](N)Cc1ccccc1)C(=O)N[C@H](CCCNC(=N)N)C(=O)NCCC [Peptide 3, H-D-Phe-D-Phe-D-Nle-D-Arg-NHPr] (H-[dF][dF][dNle][dR]-NHPr)
[1]
  μ/κ Ratio (binding affinity for KOR versus MOR): 18,000
  Ki: 0.09 nM
[2]
  Ki: 1640 nM
Conscious male ICR mice
  WT-ED50: 0.078 mg/kg
  % Antinociception 1 hr: 29%
  % Antinociception 2 hr: 30.7%
mouse
  TF-ED50: 13.82 mg/kg
  BPI (Brain Penetration Index): 177

## CCCC[C@@H](NC(=O)[C@@H](Cc1ccccc1)NC(=O)[C@H](N)Cc1ccccc1)C(=O)N[C@H](CCCNC(=N)N)C(=O)NC1CC1 [Peptide 5, H-D-Phe-D-Phe-D-Nle-D-Arg-NH(Cyp)] (H-[dF][dF][dNle][dR]-NHcPr)
[1]
  μ/κ Ratio (binding affinity for KOR versus MOR): 20,000
  Ki: 0.18 nM
[2]
  Ki: 3520 nM
Conscious male ICR mice
  WT-ED50: 0.04 mg/kg
  % Antinociception 1 hr: 66%
  % Antinociception 2 hr: 34.5%
mouse
  TF-ED50: 4.4 mg/kg
  BPI (Brain Penetration Index): 110

## CCCC[C@@H](NC(=O)[C@@H](Cc1ccccc1)NC(=O)[C@H](N)Cc1ccccc1)C(=O)N[C@H](CCCNC(=N)N)C(=O)N1CCOCC1 [Peptide 6, H-D-Phe-D-Phe-D-Nle-D-Arg-Mor] (H-[dF][dF][dNle][dR]-Morpholide)
[1]
  μ/κ Ratio (binding affinity for KOR versus MOR): 42,000
  Ki: 0.06 nM
[2]
  Ki: 2510 nM
Conscious male ICR mice
  WT-ED50: 0.014 mg/kg
  % Antinociception 1 hr: 105.7%
  % Antinociception 2 hr: 52.7%
mouse
  TF-ED50: 6.4 mg/kg
  BPI (Brain Penetration Index): 457

## CCCC[C@@H](NC(=O)[C@@H](Cc1ccccc1)NC(=O)[C@H](N)Cc1ccccc1)C(=O)N[C@H](CCCNC(=N)N)C(=O)N(CC)CC [Peptide 7, H-D-Phe-D-Phe-D-Nle-D-Arg-N(Et2)] (H-[dF][dF][dNle][dR]-NEt2)
[1]
  μ/κ Ratio (binding affinity for KOR versus MOR): 17,000
  Ki: 0.11 nM
[2]
  Ki: 1900 nM
Conscious male ICR mice
  WT-ED50: 0.02 mg/kg and 0.020 mg/kg
  % Antinociception 1 hr: 67.5%
  % Antinociception 2 hr: 36.8%
mouse
  TF-ED50: 3.1 mg/kg
  BPI (Brain Penetration Index): 155

## CCCC[C@@H](NC(=O)[C@@H](Cc1ccccc1)NC(=O)[C@H](N)Cc1ccccc1)C(=O)N[C@H](CCCNC(=N)N)C(=O)NCc1ccncc1 [Peptide 8, H-D-Phe-D-Phe-D-Nle-D-Arg-NH(4-Pic)] (H-[dF][dF][dNle][dR]-{NH(4-picolyl)})
[1]
  μ/κ Ratio (binding affinity for KOR versus MOR): 26,000
  Ki: 0.14 nM
[2]
  Ki: 3640 nM
Conscious male ICR mice
  WT-ED50: 0.01 mg/kg
  % Antinociception 1 hr: 66.9%
  % Antinociception 2 hr: 45.1%
mouse
  TF-ED50: 9.84 mg/kg
  BPI (Brain Penetration Index): 984

## CCCC[C@@H](NC(=O)[C@@H](Cc1ccccc1)NC(=O)[C@H](N)Cc1ccccc1)C(=O)N[C@H](CCCNC(=N)N)C(=O)N1CCNCC1 [Peptide 15, H-D-Phe-D-Phe-D-Nle-D-Arg-Ppz] (H-[dF][dF][dNle][dR]-{N(CH2CH2)2NH})
[1]
  μ/κ Ratio (binding affinity for KOR versus MOR): 57,000
  Ki: 0.16 nM
[2]
  Ki: 9100 nM
Conscious male ICR mice
  WT-ED50: 0.017 mg/kg

## CCNC(=O)[C@@H](CCCN)NC(=O)[C@@H](CC(C)C)NC(=O)[C@@H](Cc1ccccc1)NC(=O)[C@H](N)Cc1ccccc1 [Peptide 56, H-D-Phe-D-Phe-D-Leu-D-Orn-NHEt]
[1]
  μ/κ Ratio (binding affinity for KOR versus MOR): 13,000
  Ki: 0.31 nM
[2]
  Ki: 4150 nM
Conscious male ICR mice
  WT-ED50: 0.057 mg/kg and 0.06 mg/kg
  % Antinociception 1 hr: 76.3%
  % Antinociception 2 hr: 60.2%

## CC(C)C[C@@H](NC(=O)[C@@H](Cc1ccccc1)NC(=O)[C@H](N)Cc1ccccc1)C(=O)N[C@H](CCCN)C(=O)N1CCOCC1 [Peptide 57, H-D-Phe-D-Phe-D-Leu-D-Onn-Mor]
[1]
  μ/κ Ratio (binding affinity for KOR versus MOR): 28,000
  Ki: 0.19 nM
[2]
  Ki: 5260 nM
Conscious male ICR mice
  WT-ED50: 0.026 mg/kg
  % Antinociception 1 hr: 100%
  % Antinociception 2 hr: 67.2%
  % Antinociception 3 hr: 58.2%
mouse
  TF-ED50: 5.6 mg/kg
  BPI (Brain Penetration Index): 215

## CCCC[C@@H](NC(=O)[C@@H](Cc1ccccc1)NC(=O)[C@H](N)Cc1ccccc1)C(=O)N[C@H](Cc1ccc(CNC(=N)N)cc1)C(=O)N1CCOCC1 [Peptide 58, H-D-Phe-D-Phe-D-Nle-D-Gmf-Mor]
[1]
  μ/κ Ratio (binding affinity for KOR versus MOR): 6,500
  Ki: 0.46 nM
[2]
  Ki: 3010 nM
Conscious male ICR mice
  WT-ED50: 0.040 mg/kg

## CC(C)C[C@@H](NC(=O)[C@@H](Cc1ccc(Cl)c(Cl)c1)NC(=O)[C@H](N)Cc1cccs1)C(=O)N[C@H](CCCNC(=N)N)C(=O)NCc1ccncc1 [Peptide 60, H-D-Ala(2Thi)-D-3,4Cpa-D-Leu-D-Arg-NH(4Pic)] (H-[d2Thi][dPhe(3,4-Cl2)][dL][dR]-{NH(4-picolyl)})
[1]
  μ/κ Ratio (binding affinity for KOR versus MOR): 1,900
  Ki: 0.4 nM
[2]
  Ki: 769 nM
Conscious male ICR mice
  WT-ED50: 0.083 mg/kg
  % Antinociception 1 hr: 83.8%
  % Antinociception 2 hr: 35.5%

## CC(C)C[C@@H](NC(=O)[C@@H](Cc1ccc2ccccc2c1)NC(=O)[C@H](N)Cc1cccs1)C(=O)N[C@H](CCCNC(=N)N)C(=O)N1CCOCC1 [Peptide 63, H-D-Ala(2Thi)-D-2Nal-D-Leu-D-Arg-Mor] (H-[d2Thi][d2Nal][dL][dR]-Morpholide)
[1]
  μ/κ Ratio (binding affinity for KOR versus MOR): 16,000
  Ki: 0.2 nM
[2]
  Ki: 3170 nM
Conscious male ICR mice
  WT-ED50: 0.04 mg/kg
  % Antinociception 1 hr: 51.8%
  % Antinociception 2 hr: 36.1%
